Assay results reported in the supplement of paper PMC11061612.

What was measured:
Test in all cases: combination Emax (second highest fraction inhibited in the dose matrix, 72 h); higher = more inhibition; extreme values may be limits of the assay
[1] = tested on: COR-L23 (Non-Small Cell Lung Carcinoma)
In short: (§1)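 After 24 hours at 37°C and 5% CO2 in 1536-well plates, cells in DMEM/F12 or RPMI plus 10% FBS received two-drug dose matrices for 72 hours. Viability came from CellTiter-Glo 2.0 luminescence and was scaled as inhibition, anchored at 0 by vehicle wells and at 1 by blank wells. Combination Emax is taken as the second-highest inhibition in the matrix, and Bliss excess as the observed combination effect less EA + EB − EA·EB, with EA and EB the single-agent effects.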

[2] = tested on: COR-L95 (Small Cell Lung Carcinoma)
In short: as §1

[3] = tested on: CTV-1 (T-Lymphoblastic Leukemia)
In short: as §1

[4] = tested on: DMS-273 (Small Cell Lung Carcinoma)
In short: as §1

[5] = tested on: DOV13 (Ovarian Carcinoma)
In short: as §1

[6] = tested on: HPAC (Pancreatic Carcinoma)
In short: as §1

[7] = tested on: HT-29 (Colorectal Carcinoma)
In short: as §1

[8] = tested on: KM-H2 (Hodgkin's Lymphoma)
In short: as §1

[9] = tested on: MDA-MB-157 (Breast Carcinoma)
In short: as §1

[10] = tested on: MDA-MB-231 (Breast Carcinoma)
In short: as §1

[11] = tested on: NCI-H1694 (Small Cell Lung Carcinoma)
In short: as §1

[12] = tested on: NCI-H1781 (Lung Adenocarcinoma)
In short: as §1

[13] = tested on: NCI-H2595 (Mesothelioma)
In short: as §1

[14] = tested on: OCI-AML2 (Acute Myeloid Leukemia)
In short: as §1

[15] = tested on: SN12C (Kidney Carcinoma)
In short: as §1

[16] = tested on: SNU-C5 (Colorectal Carcinoma)
In short: as §1

[17] = tested on: SW780 (Bladder Carcinoma)
In short: as §1

[18] = tested on: TE-5 (Esophageal Squamous Cell Carcinoma)
In short: as §1

[19] = tested on: TGBC24TKB (Biliary Tract Carcinoma)
In short: as §1

[20] = tested on: U-266 (Plasma Cell Myeloma)
In short: as §1

Row | Structure (SMILES) | combination Emax [1] | combination Emax [2] | combination Emax [3] | combination Emax [4] | combination Emax [5] | combination Emax [6] | combination Emax [7] | combination Emax [8] | combination Emax [9] | combination Emax [10] | combination Emax [11] | combination Emax [12] | combination Emax [13] | combination Emax [14] | combination Emax [15] | combination Emax [16] | combination Emax [17] | combination Emax [18] | combination Emax [19] | combination Emax [20]
1 | CS(=O)(=O)CCNCc1ccc(-c2ccc3ncnc(Nc4ccc(OCc5cccc(F)c5)c(Cl)c4)c3c2)o1 [Lapatinib] + C[C@@H](Oc1cc(-c2cnn(C3CCNCC3)c2)cnc1N)c1c(Cl)ccc(F)c1Cl [Crizotinib] (first compound max 10 µM, 7x7, partner max 10 µM) | 0.949 | 0.812 | 1 | 0.954 | 0.886 | 0.929 | 0.942 | 0.931 | 0.493 | 0.828 | 0.291 | 0.774 | 0.458 | 0.915 | 0.216 | 0.764 | 0.489 | 0.502 | 0.952 | 0.495
2 | CN(CCO)CC[C@H](CSc1ccccc1)Nc1ccc(S(=O)(=O)NC(=O)c2ccc(N3CCC([C@@H](O)c4ccccc4-c4ccc(Cl)cc4)CC3)cc2)cc1S(=O)(=O)C(F)(F)F [AZD4320] + Cn1cnc2c(F)c(Nc3ccc(Br)cc3Cl)c(C(=O)NOCCO)cc21 [Selumetinib] (first compound max 1 µM, 7x7, partner max 3 µM) | 0.442 | 1 | 0.706 | 0.349 | 0.747 | 0.865 | 0.695 | 0.296 | 0.366 | 0.832 | 0.957 | 0.568 | 0.275 | 1 | 0.337 | 0.656 | 0.78 | 0.597 | 0.791 | 0.938
3 | COc1cccc(OCCCN)c1-c1cc(Nc2cnc(C#N)cn2)n[nH]1 [Prexasertib] + CCc1c2c(nc3ccc(O)cc13)-c1cc3c(c(=O)n1C2)COC(=O)[C@]3(O)CC [SN-38] (first compound max 1 µM, 7x7, partner max 0.3 µM) | 0.852 | 0.844 | 0.999 | 0.997 | 0.959 | 0.887 | 0.936 | 0.944 | 0.989 | 0.978 | 1 | 0.993 | 0.426 | 1 | 0.76 | 0.928 | 0.969 | 0.818 | 0.852 | 0.703
4 | CCc1c2c(nc3ccc(O)cc13)-c1cc3c(c(=O)n1C2)COC(=O)[C@]3(O)CC [SN-38] + CN(C)CCCOc1ccc(-c2ccc3ncc4c(c3c2)n(C2CCOCC2)c(=O)n4C)cn1 [AZD0156] (first compound max 0.3 µM, 7x7, partner max 1 µM) | 0.686 | 0.789 | 1 | 0.802 | 0.936 | 0.38 | 0.89 | 0.907 | 0.742 | 0.658 | 0.968 | 0.99 | 0.176 | 1 | 0.738 | 0.757 | 0.33 | 0.796 | 0.533 | 0.482
5 | CC1(C)CCC(CN2CCN(c3ccc(C(=O)NS(=O)(=O)c4ccc(NCC5CCOCC5)c([N+](=O)[O-])c4)c(Oc4cnc5[nH]ccc5c4)c3)CC2)=C(c2ccc(Cl)cc2)C1 [Venetoclax] + C=CCn1c(=O)c2cnc(Nc3ccc(N4CCN(C)CC4)cc3)nc2n1-c1cccc(C(C)(C)O)n1 [AZD1775] (first compound max 1 µM, partner max 1 µM) | 0.602 | 0.862 | 0.992 | 0.749 | 0.912 | 0.757 | 0.89 | 0.974 | 0.905 | 0.481 | 0.516 | 0.449 | 0.189 | 1 | 0.381 | 0.57 | 0.148 | 0.451 | 0.52 | 0.85
6 | CC1(C)CCC(CN2CCN(c3ccc(C(=O)NS(=O)(=O)c4ccc(NCC5CCOCC5)c([N+](=O)[O-])c4)c(Oc4cnc5[nH]ccc5c4)c3)CC2)=C(c2ccc(Cl)cc2)C1 [Venetoclax] + COc1cc(Nc2ncc3c(n2)-c2ccc(Cl)cc2C(c2c(F)cccc2OC)=NC3)ccc1C(=O)O [Alisertib] (first compound max 1 µM, 7x7, partner max 10 µM) | 0.307 | 0.705 | 0.976 | 0.767 | 0.693 | 0.688 | 0.418 | 0.448 | 0.649 | 0.392 | 0.667 | 0.665 | 0.211 | 1 | 0.318 | 0.347 | 0.534 | 0.137 | 0.638 | 0.751
7 | Cc1c2c(nn1C)CSCc1cc(n(C)n1)CSc1cc(c3ccccc3c1)OCCCc1c(C(=O)O)n(C)c3c-2c(Cl)ccc13 [AZD5991] + CC1(C)CCC(CN2CCN(c3ccc(C(=O)NS(=O)(=O)c4ccc(NCC5CCOCC5)c([N+](=O)[O-])c4)c(Oc4cnc5[nH]ccc5c4)c3)CC2)=C(c2ccc(Cl)cc2)C1 [Venetoclax] (first compound max 1 µM, 7x7, partner max 1 µM) | 0.164 | 0.914 | 0.13 | 0.964 | 0.221 | 0.244 | 0.189 | 0.312 | 0.862 | 0.216 | 0.988 | 0.432 | 0.267 | 1 | 0.21 | 0.204 | 0.386 | 0.525 | 0.304 | 0.97
8 | Cn1cnc2c(F)c(Nc3ccc(Br)cc3Cl)c(C(=O)NOCCO)cc21 [Selumetinib] + CC(C)n1c(=O)n(C)c2cnc3cc(F)c(-c4ccc(OCCCN5CCCCC5)nc4)cc3c21 [AZD1390] (first compound max 10 µM, 7x7, partner max 0.3 µM) | 0.268 | 0.18 | 0.331 | 0.232 | 0.124 | 0.678 | 0.709 | 0.153 | 0.131 | 0.501 | 0.206 | 0.218 | 0.191 | 0.993 | 0.237 | 0.351 | 0.381 | 0.137 | 0.828 | 0.532
9 | Cc1c2c(nn1C)CSCc1cc(n(C)n1)CSc1cc(c3ccccc3c1)OCCCc1c(C(=O)O)n(C)c3c-2c(Cl)ccc13 [AZD5991] + C[C@@H](Nc1cc(F)cc(F)c1)c1cc(C(=O)N(C)C)cc2c(=O)cc(N3CCOCC3)oc12 [AZD8186] (first compound max 1 µM, 7x7, partner max 3 µM) | 0.104 | 0.346 | 0.143 | 0.956 | 0.381 | 0.378 | 0.24 | 0.11 | 0.876 | 0.23 | 0.953 | 0.584 | 0.336 | 0.946 | 0.246 | 0.254 | 0.228 | 0.191 | 0.249 | 0.894
10 | NC1(C(=O)N[C@@H](CCO)c2ccc(Cl)cc2)CCN(c2ncnc3[nH]ccc23)CC1 [Capivasertib] + C[C@@H]1COCCN1C2=NC(=NC(=C2)C3(CC3)[S@](=N)(=O)C)C4=C5C=CNC5=NC=C4 [AZD6738] (first compound max 10 µM, 7x7, partner max 10 µM) | 0.707 | 0.542 | 0.902 | 0.856 | 0.925 | 0.545 | 0.834 | 0.879 | 0.884 | 0.74 | 0.682 | 0.685 | 0.29 | 0.983 | 0.261 | 0.811 | 0.284 | 0.721 | 0.711 | 0.365
11 | Cc1cc2ncnn2cc1Nc1ncc2c(n1)n(C1CCOCC1)c(=O)n2C [AZD7648] + C=CCn1c(=O)c2cnc(Nc3ccc(N4CCN(C)CC4)cc3)nc2n1-c1cccc(C(C)(C)O)n1 [AZD1775] (first compound max 10 µM, partner max 1 µM) | 0.36 | 0.583 | 0.97 | 0.611 | 0.839 | 0.748 | 0.816 | 0.933 | 0.649 | 0.434 | 0.383 | 0.482 | 0.244 | 0.986 | 0.313 | 0.609 | 0.233 | 0.515 | 0.786 | 0.697
12 | Cc1c2c(nn1C)CSCc1cc(n(C)n1)CSc1cc(c3ccccc3c1)OCCCc1c(C(=O)O)n(C)c3c-2c(Cl)ccc13 [AZD5991] + C=CCn1c(=O)c2cnc(Nc3ccc(N4CCN(C)CC4)cc3)nc2n1-c1cccc(C(C)(C)O)n1 [AZD1775] (first compound max 1 µM, partner max 1 µM) | 0.605 | 0.757 | 0.925 | 0.987 | 0.829 | 0.857 | 0.877 | 0.968 | 0.958 | 0.418 | 0.961 | 0.65 | 0.282 | 1 | 0.358 | 0.732 | 0.172 | 0.536 | 0.672 | 0.99
